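Exposure lasted 48 hours, with cells grown in 96-well plates and compounds tested at five concentrations. At the GI50, growth is halved.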 The source made the active and inactive calls. Cut-off read from the data, not from the text of the source: active = GI50 up to about 1.1 µM and inactive = higher.
Key:
Test in all cases: inhibition of tumour cell growth, NCI panel, 48 h
OVCAR-3 = system: OVCAR-3
NCI-H460 = system: NCI-H460
HOP-92 = system: HOP-92
A549 = system: A549
ACHN = system: ACHN
NCI-H23 = system: NCI-H23
U-251 = system: U-251
HT-29 = system: HT-29
M14 = system: M14
SF-295 = system: SF-295
SN12C = system: SN12C
HCT-15 = system: HCT-15
A498 = system: A498
OVCAR-8 = system: OVCAR-8
UACC-257 = system: UACC-257
K562 = system: K562
SK-OV-3 = system: SK-OV-3
SK-MEL-2 = system: SK-MEL-2
CCRF-CEM = system: CCRF-CEM
SF-268 = system: SF-268

Structure (SMILES)	GI50 (OVCAR-3)	GI50 (NCI-H460)	GI50 (HOP-92)	GI50 (A549)	GI50 (ACHN)	GI50 (NCI-H23)	GI50 (U-251)	GI50 (HT-29)	GI50 (M14)	GI50 (SF-295)	GI50 (SN12C)	GI50 (HCT-15)	GI50 (A498)	GI50 (OVCAR-8)	GI50 (UACC-257)	GI50 (K562)	GI50 (SK-OV-3)	GI50 (SK-MEL-2)	GI50 (CCRF-CEM)	GI50 (SF-268)
O=C(O)C(CSC(c1ccccc1)(c1ccccc1)c1ccccc1)/N=C/c1cccs1 (stereo not given)	2.31 µM (inactive)	3.16 µM (inactive)	14.6 µM (inactive)	3.95 µM (inactive)	12.8 µM (inactive)	4.94 µM (inactive)	2 µM (inactive)	2.96 µM (inactive)	0.378 µM (active)	1.26 µM (inactive)	3.27 µM (inactive)	4.24 µM	30.3 µM (inactive)	2.55 µM (inactive)	4.13 µM (inactive)	3.54 µM (inactive)	0.968 µM (active)	2.06 µM (inactive)	1.87 µM (inactive)	2.42 µM (inactive)
CC(C)OP(=O)(OC(C)C)/C(F)=N/Nc1ccc([N+](=O)[O-])cc1	> 100 µM (inactive)	> 100 µM (inactive)	> 100 µM (inactive)	> 100 µM (inactive)	> 100 µM (inactive)	> 100 µM (inactive)	> 100 µM (inactive)	> 100 µM (inactive)	> 100 µM (inactive)	> 100 µM (inactive)	> 100 µM (inactive)	> 100 µM	> 100 µM (inactive)	> 100 µM (inactive)	> 100 µM (inactive)	> 100 µM (inactive)	> 100 µM (inactive)	> 100 µM (inactive)	> 100 µM (inactive)	> 100 µM (inactive)
CN(N=O)c1nc2c(C(N)=O)ncn2s1	87.1 µM (inactive)	52.1 µM (inactive)	32.7 µM (inactive)	> 100 µM (inactive)	57.3 µM (inactive)	> 100 µM (inactive)	> 100 µM (inactive)	> 100 µM (inactive)	15.7 µM (inactive)	68.2 µM (inactive)	97.7 µM (inactive)	> 100 µM	> 100 µM (inactive)	30.5 µM (inactive)	94.6 µM (inactive)	48.4 µM (inactive)	48.6 µM (inactive)	35.8 µM (inactive)	45.4 µM (inactive)	55.5 µM (inactive)
O=C(O)C(SC(=S)c1ccc(C(=S)SC(C(=O)O)c2ccccc2)cc1)c1ccccc1 (stereo not given)	56.5 µM (inactive)	> 100 µM (inactive)	> 100 µM (inactive)	> 100 µM (inactive)	> 100 µM (inactive)	> 100 µM (inactive)	> 100 µM (inactive)	67.1 µM (inactive)	> 100 µM (inactive)	> 100 µM (inactive)	> 100 µM (inactive)	42.2 µM	69.8 µM (inactive)	> 100 µM (inactive)	> 100 µM (inactive)	44.5 µM (inactive)	> 100 µM (inactive)	> 100 µM (inactive)	> 100 µM (inactive)	97.3 µM (inactive)
Cc1cc(C)c2c(O)cc(-c3cccc4ccccc34)nc2n1	0.263 µM (active)	0.653 µM (active)	0.361 µM (active)	0.867 µM (active)	0.594 µM (active)	2.13 µM (inactive)	0.426 µM (active)	0.363 µM (active)	0.745 µM (active)	0.615 µM (active)	2.78 µM (inactive)	0.468 µM	0.474 µM (active)	1.14 µM (inactive)	0.238 µM (active)	0.386 µM (active)	0.462 µM (active)	0.291 µM (active)	0.719 µM (active)	2.58 µM (inactive)
O=C(C1=C(C(=O)c2ccccc2)SC2(S1)C(C(=O)c1ccccc1)=C(C(=O)c1ccccc1)Sc1c2ssc1=O)c1ccccc1	67.6 µM (inactive)	31.5 µM (inactive)	> 100 µM (inactive)	30.5 µM (inactive)	37.5 µM (inactive)	> 100 µM (inactive)	32.6 µM (inactive)	> 100 µM (inactive)	37.3 µM (inactive)	33.5 µM (inactive)	26.7 µM (inactive)	64.9 µM	17.2 µM (inactive)	44.5 µM (inactive)	> 100 µM (inactive)	30.4 µM (inactive)	49.3 µM (inactive)	99.1 µM (inactive)	8.34 µM (inactive)	67.5 µM (inactive)
COc1cc(C(=O)CC2OC(=O)C(Cl)=C2Cl)ccc1Cl (stereo not given)	> 100 µM (inactive)	> 100 µM (inactive)	> 100 µM (inactive)	> 100 µM (inactive)	> 100 µM (inactive)	> 100 µM (inactive)	> 100 µM (inactive)	> 100 µM (inactive)	> 100 µM (inactive)	> 100 µM (inactive)	> 100 µM (inactive)	> 100 µM	> 100 µM (inactive)	> 100 µM (inactive)	> 100 µM (inactive)	> 100 µM (inactive)	> 100 µM (inactive)	> 100 µM (inactive)	69 µM (inactive)	> 100 µM (inactive)
O=C1CC(=O)NC(NN2C(=O)/C(=C/c3ccc(Cl)c(Cl)c3)N=C2c2ccccc2)=N1	19.1 µM (inactive)	15.7 µM (inactive)	27 µM (inactive)	27.2 µM (inactive)	40.2 µM (inactive)	26.7 µM (inactive)	23.9 µM (inactive)	22.9 µM (inactive)	28.8 µM (inactive)	32 µM (inactive)	17.3 µM (inactive)	30.3 µM	23.4 µM (inactive)	34 µM (inactive)	34.2 µM (inactive)	13.7 µM (inactive)	46.8 µM (inactive)	14.1 µM (inactive)	11.9 µM (inactive)	24.5 µM (inactive)
